The values below come from US12570642B2, “GLP-IR modulating compounds” (Gilead Sciences, Inc., priority 2021, dated 2026).

For the test, the target named is GLP-1R (Homo sapiens, UniProt P43220). Kind of test: GLP-1R Activation - cAMP Assay. In kind it is cell-based. The settings on record: each compound run on one of the two cAMP assays (Assay 1 or Assay 2, not specified). In short, it runs like this: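 cAMP rise read by HTRF after 30 min agonist exposure (10-point titration, 37 °C) in HBSS/20 mM Hepes/0.1% BSA, following 1 h pre-incubation. Cells: stable GLP-1R CHO line, 1,000/well, seeded overnight. Sigmoidal fit of response vs log concentration gives EC50.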
Sequence of GLP-1R (P43220 24-463): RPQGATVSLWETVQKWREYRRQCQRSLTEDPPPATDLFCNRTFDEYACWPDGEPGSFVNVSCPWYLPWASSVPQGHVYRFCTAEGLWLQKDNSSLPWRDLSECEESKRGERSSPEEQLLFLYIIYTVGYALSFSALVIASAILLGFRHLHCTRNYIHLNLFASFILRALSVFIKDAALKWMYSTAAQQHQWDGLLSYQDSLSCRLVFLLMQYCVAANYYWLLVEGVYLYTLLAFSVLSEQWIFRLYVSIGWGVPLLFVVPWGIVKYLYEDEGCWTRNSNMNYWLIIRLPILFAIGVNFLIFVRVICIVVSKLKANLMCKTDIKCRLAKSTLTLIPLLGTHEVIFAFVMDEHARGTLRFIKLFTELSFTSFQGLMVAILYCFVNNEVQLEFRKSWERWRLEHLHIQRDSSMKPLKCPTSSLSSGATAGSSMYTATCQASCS

The mark [1] stands for this setting: cAMP increase in CHO cells stably expressing GLP-1R.

As to `COC[C@H]1COC[C@H]1n1c(Cc2cc(F)c(-c3ccc(F)c(OCc4ccc(Cl)cc4F)c3)cc2F)nc2ccc(C(=O)O)cc21` [Example 559, 2-((3′-((4-chloro-2-fluorobenzyl)oxy)-2,4′,5-trifluoro-[1,1′-biphenyl]-4-yl)methyl)-1-((3S,4S)-4-(methoxymethyl)tetrahydrofuran-3-yl)-1H-benzo[d]imidazole-6-carboxylic acid], the EC50 (usually the midpoint of the concentration-response curve) under setting [1] was 0.195 nM.
In turn, `CC1(C)COCC1n1c(Cc2cc(F)c(-c3cccc(OCc4ncc(C(F)(F)F)cc4F)n3)cc2F)nc2c(F)cc(C(=O)O)cc21` (stereo not drawn) [Example 264, 2-(2,5-difluoro-4-(6-((3-fluoro-5-(trifluoromethyl)pyridin-2-yl)methoxy)pyridin-2-yl)benzyl)-1-(4,4-dimethyltetrahydrofuran-3-yl)-4-fluoro-1H-benzo[d]imidazole-6-carboxylic acid] gave an EC50 under setting [1] of 0.155 nM.
On the same count and under the same terms, for `COCCn1c(Cc2c(F)cc(-c3cccc(OCc4cnc(-n5ccnn5)cc4Cl)n3)c(F)c2F)nc2ccc(C(=O)O)cc21` [Example 391, 2-(4-(6-((4-chloro-6-(1H-1,2,3-triazol-1-yl)pyridin-3-yl)methoxy)pyridin-2-yl)-2,3,6-trifluorobenzyl)-1-(2-methoxyethyl)-1H-benzo[d]imidazole-6-carboxylic acid] the value was 0.107 nM; for `N#Cc1ccc(COc2cccc(-c3cc(F)c(Cc4nc5ccc(C(=O)O)cc5n4C45COCC4C5)cc3F)n2)c(F)c1` (stereo not drawn) [Example 69, 1-(3-oxabicyclo[3.1.0]hexan-1-yl)-2-(4-(6-((4-cyano-2-fluorobenzyl)oxy)pyridin-2-yl)-2,5-difluorobenzyl)-1H-benzo[d]imidazole-6-carboxylic Acid], 13.8 nM; for `CC1(C)COC[C@H]1n1c(Cc2c(F)cc(-c3cccc(OCc4ccc(Cl)cc4F)n3)c(F)c2F)nc2c(F)cc(C(=O)O)cc21` [Example 242, (S)-2-(4-(6-((4-chloro-2-fluorobenzyl)oxy)pyridin-2-yl)-2,3,6-trifluorobenzyl)-1-(4,4-dimethyltetrahydrofuran-3-yl)-4-fluoro-1H-benzo[d]imidazole-6-carboxylic acid], 0.02 nM.
Same read-out and setting: for `CC1(C)COC[C@H]1n1c(Cc2cc(F)c(-c3ccnc(OCc4ccc(F)cc4)n3)cc2F)nc2ccc(C(=O)O)cc21` [Example 575, (S)-2-(2,5-difluoro-4-(2-((4-fluorobenzyl)oxy)pyrimidin-4-yl)benzyl)-1-(4,4-dimethyltetrahydrofuran-3-yl)-1H-benzo[d]imidazole-6-carboxylic acid] the value was 0.186 nM; for `COCCn1c(Cc2c(F)cc(-c3cccc(OCc4ccc(C#N)cc4F)n3)c3nccn23)nc2ccc(C(=O)O)cc21` [Example 50], 5.24 nM; for `Cc1cc(Cc2nc3ccc(C(=O)O)cc3n2[C@@H]2COCC2(C)C)c(F)cc1-c1ccc(F)c(OCc2ccc(C#N)cc2)n1` [Example 180, (S)-2-(4-(6-((4-cyanobenzyl)oxy)-5-fluoropyridin-2-yl)-2-fluoro-5-methylbenzyl)-1-(4,4-dimethyltetrahydrofuran-3-yl)-1H-benzo[d]imidazole-6-carboxylic Acid], 0.089 nM.
Still for that read-out and setting: next, `CC1(C)COCC1n1c(Cc2cc(F)c(-c3cccc(OCc4ccc(C#N)cc4F)n3)cc2F)nc2ccc(C(=O)O)cc21` (stereo not drawn) [Example 78, 2-(4-(6-((4-cyano-2-fluorobenzyl)oxy)pyridin-2-yl)-2,5-difluorobenzyl)-1-(4,4-dimethyltetrahydrofuran-3-yl)-1H-benzo[d]imidazole-6-carboxylic Acid]: 0.36 nM; `COc1cc(Cl)ccc1COc1cccc(-c2cc(F)c(Cc3nc4ccc(C(=O)O)cc4n3[C@@H]3COCC3(C)C)cc2F)n1` [Example 462, (S)-2-(4-(6-((4-chloro-2-methoxybenzyl)oxy)pyridin-2-yl)-2,5-difluorobenzyl)-1-(4,4-dimethyltetrahydrofuran-3-yl)-1H-benzo[d]imidazole-6-carboxylic acid]: 0.141 nM.
For the compound `CC1(C)COC[C@H]1n1c(Cc2cc(F)c(-c3cccc(OCc4ccc(Cl)cc4C(F)(F)F)n3)cc2F)nc2ccc(C(=O)O)cc21` [Example 469, (S)-2-(4-(6-((4-chloro-2-(trifluoromethyl)benzyl)oxy)pyridin-2-yl)-2,5-difluorobenzyl)-1-(4,4-dimethyltetrahydrofuran-3-yl)-1H-benzo[d]imidazole-6-carboxylic acid], the EC50 under setting [1] amounted to 1.6 nM.
The same measure, in the same setting: for `N#Cc1ccc(COc2cccc(-c3cc(F)c(Cc4nc5ccc(C(=O)O)cc5n4[C@@H]4COC[C@H]4F)cc3F)n2)c(F)c1` (racemic) [Example 77, 2-(4-(6-((4-cyano-2-fluorobenzyl)oxy)pyridin-2-yl)-2,5-difluorobenzyl)-1-((3R,4S)-4-fluorotetrahydrofuran-3-yl)-1H-benzo[d]imidazole-6-carboxylic Acid] the value was 1.91 nM; for `N#Cc1ccc(COc2cccc(-c3cc(F)c(Cc4nc5ccc(C(=O)O)cc5n4C4COC[C@H]4CO)cc3F)n2)c(F)c1` (mixture of isomers) [Example 217, 2-(4-(6-((4-cyano-2-fluorobenzyl)oxy)pyridin-2-yl)-2,5-difluorobenzyl)-1-((3S,4R)-4-(hydroxymethyl)tetrahydrofuran-3-yl)-1H-benzo[d]imidazole-6-carboxylic acid], 1.11 nM; for `COCCn1c(Cc2cc(F)c(-c3cccc(OCc4ccc5c(c4)CN(C(=O)OC)C5)n3)cc2Cl)nc2c(F)cc(C(=O)O)cc21` [Example 258, 2-(2-chloro-5-fluoro-4-(6-((2-(methoxycarbonyl)isoindolin-5-yl)methoxy)pyridin-2-yl)benzyl)-4-fluoro-1-(2-methoxyethyl)-1H-benzo[d]imidazole-6-carboxylic acid], 0.24 nM.
Still for that read-out and setting: for `Cc1cc(Cc2nc3ccc(C(=O)O)cc3n2[C@@H]2COCC2(C)C)c(Cl)cc1-c1ccc(F)c(OCc2ccc(C#N)cc2F)n1` [Example 140, (S)-2-(2-chloro-4-(6-((4-cyano-2-fluorobenzyl)oxy)-5-fluoropyridin-2-yl)-5-methylbenzyl)-1-(4,4-dimethyltetrahydrofuran-3-yl)-1H-benzo[d]imidazole-6-carboxylic Acid] the value was 0.158 nM; for `Cn1cc(-c2cc(F)c(COc3cccc(-c4cc(F)c(Cc5nc6ccc(C(=O)O)cc6n5[C@@H]5COCC5(C)C)cc4F)n3)cn2)cn1` (single isomer, unassigned) [Example 58], 0.58 nM; for `Cc1cc(Cc2nc3c(F)cc(C(=O)O)cc3n2[C@@H]2COCC2(C)C)c(Cl)cc1-c1cccc(OCc2ccc(C#N)cc2)n1` [Example 133, (S)-2-(2-chloro-4-(6-((4-cyanobenzyl)oxy)pyridin-2-yl)-5-methylbenzyl)-1-(4,4-dimethyltetrahydrofuran-3-yl)-4-fluoro-1H-benzo[d]imidazole-6-carboxylic Acid], 0.021 nM.
Same read-out and setting: for `COCCn1c(Cc2c(F)cc(-c3cccc(OCc4ccc(-n5ccnn5)cc4)n3)c(F)c2F)nc2c(F)cc(C(=O)O)cc21` [Example 222, 2-(4-(6-((4-(1H-1,2,3-triazol-1-yl)benzyl)oxy)pyridin-2-yl)-2,3,6-trifluorobenzyl)-4-fluoro-1-(2-methoxyethyl)-1H-benzo[d]imidazole-6-carboxylic acid] the value was 0.136 nM.
`N#Cc1ccc(COc2cccc(-c3cc(F)c(Cc4nc5ccc(C(=O)O)cc5n4C4COCC45CC5)cc3F)n2)c(F)c1` (stereo not drawn) [Example 268, 2-(4-(6-((4-cyano-2-fluorobenzyl)oxy)pyridin-2-yl)-2,5-difluorobenzyl)-1-(5-oxaspiro[2.4]heptan-7-yl)-1H-benzo[d]imidazole-6-carboxylic acid] had an EC50 under setting [1] of 0.175 nM.
The same measure, in the same setting: for `Cc1cc(Cc2nc3ccc(C(=O)O)cc3n2[C@@H]2COCC2(C)C)c(F)cc1-c1ccnc(OCc2ccc(Cl)cc2)n1` [Example 219, (S)-2-(4-(2-((4-chlorobenzyl)oxy)pyrimidin-4-yl)-2-fluoro-5-methylbenzyl)-1-(4,4-dimethyltetrahydrofuran-3-yl)-1H-benzo[d]imidazole-6-carboxylic acid] the value was 0.189 nM.
Turning to `COC(=O)N1C[C@@H](n2c(Cc3cc(F)c(-c4cccc(OCc5ccc(C#N)cc5F)n4)cc3F)nc3ccc(C(=O)O)cc32)[C@H](OC)C1` [Example 86, 2-(4-(6-((4-cyano-2-fluorobenzyl)oxy)pyridin-2-yl)-2,5-difluorobenzyl)-1-((3R,4R)-4-methoxy-1-(methoxycarbonyl)pyrrolidin-3-yl)-1H-benzo[d]imidazole-6-carboxylic Acid], under “[…]”, the 50% effective concentration (EC50) stood at 140 nM.
Under setting [1], `CC1(C)COCC1n1c(Cc2cc(F)c(-c3ccnc(OCc4ccc(C(F)(F)F)cc4F)n3)cc2F)nc2c(F)cc(C(=O)O)cc21` (stereo not drawn) [Example 200, 2-(2,5-difluoro-4-(2-((2-fluoro-4-(trifluoromethyl)benzyl)oxy)pyrimidin-4-yl)benzyl)-1-(4,4-dimethyltetrahydrofuran-3-yl)-4-fluoro-1H-benzo[d]imidazole-6-carboxylic acid] had an EC50 of 0.508 nM.
On the same count and under the same terms, for `N#Cc1ccc(COc2cccc(-c3cc(F)c(Cc4nc5ccc(C(=O)O)cc5n4[C@@H]4COC[C@H]4C(F)F)cc3F)n2)c(F)c1` (racemic) [Example 269, 2-(4-(6-((4-cyano-2-fluorobenzyl)oxy)pyridin-2-yl)-2,5-difluorobenzyl)-1-((3S,4S)-4-(difluoromethyl)tetrahydrofuran-3-yl)-1H-benzo[d]imidazole-6-carboxylic acid] the value was 0.164 nM.
The same measure, in the same setting: for `CC1(C)COC[C@H]1n1c(Cc2c(F)cc(-c3ccc(F)c(OCc4ccc(Cl)cc4)n3)c(F)c2F)nc2ccc(C(=O)O)cc21` [Example 282, (S)-2-(4-(6-((4-chlorobenzyl)oxy)-5-fluoropyridin-2-yl)-2,3,6-trifluorobenzyl)-1-(4,4-dimethyltetrahydrofuran-3-yl)-1H-benzo[d]imidazole-6-carboxylic acid] the value was 0.192 nM.
